ChEMBL document CHEMBL1152560, “Substituted 2-arylbenzothiazoles as kinase inhibitors: hit-to-lead optimization” (Bioorg Med Chem, 2009)

Key:
[1] = target: T1, Protein kinase C zeta type (Homo sapiens) (UniProt Q05513); assay: Residual activity of PKCzeta at 1 uM by microplate scintillation counting
T1 sequence (whole entry): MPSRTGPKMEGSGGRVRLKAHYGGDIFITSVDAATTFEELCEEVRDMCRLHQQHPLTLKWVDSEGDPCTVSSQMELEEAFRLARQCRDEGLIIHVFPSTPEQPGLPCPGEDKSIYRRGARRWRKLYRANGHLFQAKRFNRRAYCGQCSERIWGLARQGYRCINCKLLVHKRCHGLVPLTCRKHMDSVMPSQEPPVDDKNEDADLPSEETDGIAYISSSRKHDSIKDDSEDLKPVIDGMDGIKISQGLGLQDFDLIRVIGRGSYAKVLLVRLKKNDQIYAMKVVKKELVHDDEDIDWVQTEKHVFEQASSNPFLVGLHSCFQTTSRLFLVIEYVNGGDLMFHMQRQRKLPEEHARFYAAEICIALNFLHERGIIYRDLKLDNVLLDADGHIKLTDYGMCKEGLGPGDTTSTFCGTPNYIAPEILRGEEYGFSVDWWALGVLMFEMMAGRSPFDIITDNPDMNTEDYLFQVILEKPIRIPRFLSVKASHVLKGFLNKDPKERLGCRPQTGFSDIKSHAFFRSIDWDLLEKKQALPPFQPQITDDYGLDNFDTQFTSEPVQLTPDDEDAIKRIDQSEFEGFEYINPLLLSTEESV

[2] = target: T2, Serine/threonine-protein kinase 4 (Homo sapiens) (UniProt Q13043); assay: Residual activity of MST1 at 0.1 uM by microplate scintillation counting
T2 sequence (whole entry): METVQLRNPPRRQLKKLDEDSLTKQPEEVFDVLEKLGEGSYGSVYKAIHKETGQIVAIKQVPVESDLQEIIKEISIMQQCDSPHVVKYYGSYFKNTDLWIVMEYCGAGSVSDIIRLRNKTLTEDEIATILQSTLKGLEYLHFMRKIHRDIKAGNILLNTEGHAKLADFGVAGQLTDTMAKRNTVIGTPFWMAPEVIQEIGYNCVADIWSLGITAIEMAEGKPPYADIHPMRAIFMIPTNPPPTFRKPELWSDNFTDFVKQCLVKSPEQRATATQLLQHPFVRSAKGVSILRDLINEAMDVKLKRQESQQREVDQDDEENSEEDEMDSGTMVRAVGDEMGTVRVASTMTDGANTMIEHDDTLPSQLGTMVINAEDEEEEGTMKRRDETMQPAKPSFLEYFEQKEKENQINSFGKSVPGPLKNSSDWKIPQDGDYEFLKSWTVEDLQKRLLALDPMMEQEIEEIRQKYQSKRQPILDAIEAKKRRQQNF

[3] = target: Receptor tyrosine-protein kinase erbB-4 (Homo sapiens) (UniProt Q15303); assay: Residual activity of ERBB4 at 10 uM by microplate scintillation counting
Sequence of Receptor tyrosine-protein kinase erbB-4 (Homo sapiens) (Q15303 whole entry): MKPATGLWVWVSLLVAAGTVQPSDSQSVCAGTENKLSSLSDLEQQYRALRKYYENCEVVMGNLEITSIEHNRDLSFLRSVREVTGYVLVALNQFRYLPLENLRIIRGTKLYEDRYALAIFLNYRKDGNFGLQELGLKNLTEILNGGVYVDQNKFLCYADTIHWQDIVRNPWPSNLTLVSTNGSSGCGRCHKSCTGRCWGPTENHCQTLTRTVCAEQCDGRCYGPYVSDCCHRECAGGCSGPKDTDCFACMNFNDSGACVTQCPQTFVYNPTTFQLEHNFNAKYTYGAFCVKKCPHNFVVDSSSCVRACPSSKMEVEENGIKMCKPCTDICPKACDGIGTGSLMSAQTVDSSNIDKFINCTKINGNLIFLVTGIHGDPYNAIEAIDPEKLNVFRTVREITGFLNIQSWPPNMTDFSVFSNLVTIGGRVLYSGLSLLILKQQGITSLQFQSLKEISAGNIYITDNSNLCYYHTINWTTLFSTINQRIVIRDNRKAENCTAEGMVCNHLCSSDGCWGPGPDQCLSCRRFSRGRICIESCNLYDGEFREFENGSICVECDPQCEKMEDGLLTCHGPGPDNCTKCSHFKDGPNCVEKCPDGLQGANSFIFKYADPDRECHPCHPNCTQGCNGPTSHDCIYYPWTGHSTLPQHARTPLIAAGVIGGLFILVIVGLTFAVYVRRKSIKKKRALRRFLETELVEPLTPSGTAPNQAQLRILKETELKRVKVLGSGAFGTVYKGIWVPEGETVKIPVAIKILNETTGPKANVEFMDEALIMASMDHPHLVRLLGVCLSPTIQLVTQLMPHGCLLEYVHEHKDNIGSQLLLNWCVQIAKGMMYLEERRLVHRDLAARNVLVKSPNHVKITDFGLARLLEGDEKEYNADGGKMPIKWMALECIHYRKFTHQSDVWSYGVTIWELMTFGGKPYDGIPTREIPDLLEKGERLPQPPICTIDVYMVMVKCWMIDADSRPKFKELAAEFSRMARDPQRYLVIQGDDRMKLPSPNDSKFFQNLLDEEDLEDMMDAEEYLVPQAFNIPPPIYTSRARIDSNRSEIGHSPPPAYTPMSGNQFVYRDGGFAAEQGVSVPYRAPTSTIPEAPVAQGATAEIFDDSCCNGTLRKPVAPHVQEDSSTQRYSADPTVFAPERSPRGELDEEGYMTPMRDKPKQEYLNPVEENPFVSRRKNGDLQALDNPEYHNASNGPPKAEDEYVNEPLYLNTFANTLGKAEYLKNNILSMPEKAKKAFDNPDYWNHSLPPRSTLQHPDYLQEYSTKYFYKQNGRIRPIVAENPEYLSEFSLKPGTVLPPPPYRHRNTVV

[4] = target: Protein kinase C beta type (Homo sapiens) (UniProt P05771); assay: Residual activity of PKCbeta1 at 10 uM by microplate scintillation counting
Sequence of Protein kinase C beta type (Homo sapiens) (P05771 2-671 limits assumed): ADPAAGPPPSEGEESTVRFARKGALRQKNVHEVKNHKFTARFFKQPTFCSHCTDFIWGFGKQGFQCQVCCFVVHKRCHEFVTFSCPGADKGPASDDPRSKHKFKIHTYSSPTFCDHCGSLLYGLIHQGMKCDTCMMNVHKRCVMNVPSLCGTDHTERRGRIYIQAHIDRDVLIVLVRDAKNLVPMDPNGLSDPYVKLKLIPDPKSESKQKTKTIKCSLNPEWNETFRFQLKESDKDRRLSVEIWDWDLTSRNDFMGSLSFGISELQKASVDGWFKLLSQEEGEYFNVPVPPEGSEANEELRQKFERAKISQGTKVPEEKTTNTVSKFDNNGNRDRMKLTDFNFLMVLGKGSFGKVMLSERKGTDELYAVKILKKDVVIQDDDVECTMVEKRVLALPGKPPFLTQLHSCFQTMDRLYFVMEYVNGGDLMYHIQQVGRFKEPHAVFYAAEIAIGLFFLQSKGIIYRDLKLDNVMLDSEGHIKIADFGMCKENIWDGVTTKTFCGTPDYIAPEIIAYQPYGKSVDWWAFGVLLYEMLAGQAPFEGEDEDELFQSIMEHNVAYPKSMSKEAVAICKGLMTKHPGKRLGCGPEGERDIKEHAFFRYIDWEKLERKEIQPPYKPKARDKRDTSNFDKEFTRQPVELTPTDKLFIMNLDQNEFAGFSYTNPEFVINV

[5] = target: Serine/threonine-protein kinase pim-2 (Homo sapiens) (UniProt Q9P1W9); assay: Residual activity of PIM2 at 0.1 uM by microplate scintillation counting
Sequence of Serine/threonine-protein kinase pim-2 (Homo sapiens) (Q9P1W9 whole entry, looked up): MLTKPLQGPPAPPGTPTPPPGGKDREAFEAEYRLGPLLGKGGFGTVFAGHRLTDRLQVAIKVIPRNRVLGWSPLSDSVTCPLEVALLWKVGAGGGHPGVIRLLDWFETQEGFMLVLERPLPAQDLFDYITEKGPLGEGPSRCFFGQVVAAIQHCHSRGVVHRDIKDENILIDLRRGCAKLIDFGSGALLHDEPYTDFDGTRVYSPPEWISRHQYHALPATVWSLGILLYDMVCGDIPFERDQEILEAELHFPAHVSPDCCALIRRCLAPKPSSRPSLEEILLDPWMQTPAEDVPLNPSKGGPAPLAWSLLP

[6] = target: Protein kinase C beta type (Homo sapiens) (UniProt P05771); assay: Residual activity of PKCbeta1 at 0.1 uM by microplate scintillation counting
[7] = target: T3, NUAK family SNF1-like kinase 2 (Homo sapiens) (UniProt Q9H093); assay: Residual activity of SNARK at 10 uM by microplate scintillation counting
T3 sequence (whole entry): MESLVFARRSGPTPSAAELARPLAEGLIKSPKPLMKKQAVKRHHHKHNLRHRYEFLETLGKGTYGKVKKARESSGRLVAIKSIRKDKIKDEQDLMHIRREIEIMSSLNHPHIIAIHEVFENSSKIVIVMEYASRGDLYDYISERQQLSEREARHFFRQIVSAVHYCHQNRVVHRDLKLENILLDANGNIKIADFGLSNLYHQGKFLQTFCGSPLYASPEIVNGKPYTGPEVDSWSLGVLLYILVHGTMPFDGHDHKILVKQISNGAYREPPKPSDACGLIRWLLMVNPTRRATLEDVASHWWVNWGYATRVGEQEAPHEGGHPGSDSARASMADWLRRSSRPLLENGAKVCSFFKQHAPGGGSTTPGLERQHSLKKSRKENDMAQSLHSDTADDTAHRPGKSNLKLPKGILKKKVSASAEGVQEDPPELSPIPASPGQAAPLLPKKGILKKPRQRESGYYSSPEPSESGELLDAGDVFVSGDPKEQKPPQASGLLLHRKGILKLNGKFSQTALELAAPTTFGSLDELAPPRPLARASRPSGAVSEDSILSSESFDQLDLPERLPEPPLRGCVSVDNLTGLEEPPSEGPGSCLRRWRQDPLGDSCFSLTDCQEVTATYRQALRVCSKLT

[8] = target: T4, Tyrosine-protein kinase Tec (Homo sapiens) (UniProt P42680); assay: Residual activity of TEC at 0.1 uM by microplate scintillation counting
T4 sequence (whole entry): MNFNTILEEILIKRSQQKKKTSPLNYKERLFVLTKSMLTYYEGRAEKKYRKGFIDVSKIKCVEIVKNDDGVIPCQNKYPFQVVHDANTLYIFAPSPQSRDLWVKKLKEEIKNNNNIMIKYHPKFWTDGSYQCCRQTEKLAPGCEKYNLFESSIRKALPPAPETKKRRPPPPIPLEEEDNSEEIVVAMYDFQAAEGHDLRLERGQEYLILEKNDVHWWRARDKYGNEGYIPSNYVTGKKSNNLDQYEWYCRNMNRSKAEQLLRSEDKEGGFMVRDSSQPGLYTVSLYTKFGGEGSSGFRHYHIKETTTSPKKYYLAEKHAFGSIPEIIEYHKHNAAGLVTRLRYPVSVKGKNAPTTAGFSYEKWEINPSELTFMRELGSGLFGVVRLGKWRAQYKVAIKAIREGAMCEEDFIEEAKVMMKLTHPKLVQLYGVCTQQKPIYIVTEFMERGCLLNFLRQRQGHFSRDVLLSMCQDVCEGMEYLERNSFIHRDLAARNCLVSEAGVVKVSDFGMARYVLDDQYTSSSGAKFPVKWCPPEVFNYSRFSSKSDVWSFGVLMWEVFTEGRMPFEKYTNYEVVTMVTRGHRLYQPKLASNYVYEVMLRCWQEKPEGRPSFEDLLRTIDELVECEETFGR

Row | Compound | residual activity [1] [%] | residual activity [2] [%] | residual activity [3] [%] | residual activity [4] [%] | residual activity [5] [%] | residual activity [6] [%] | residual activity [7] [%] | residual activity [8] [%]
1 | COc1cc2c(Oc3ccc(-c4nc5ccccc5s4)cc3)ncnc2cc1OCCCN1CCN(C)CC1 | 92 | 96 | 118 | 81 | 64 | 100 | 92 | 105
2 | COc1cc2c(Oc3ccc(-c4nc5ccccc5s4)cc3F)ncnc2cc1OCCCN1CCN(C)CC1 | 107 | 104 | 54 | 57 | 94 | 109 | 62 | 96
3 | COc1cc2c(Oc3ccc(-c4nc5ccccc5s4)cc3)ncnc2cc1OCCCN1CCCC1 | 109 | 96 | 116 | 73 | 104 | 102 | 82 | 98
